Laboratory results taken from article PMC5560554, “Targeting of CDK9 with indirubin 3’-monoxime safely and durably reduces HIV viremia in chronically infected humanized mice” (PLoS ONE, 2017).
Where “and” joins values, the source holds several entries; their conditions need not be identical. Identical values can stand only once. Like-named read-outs stand apart in the source and are kept apart here.

Assays:
HIV [1] = system: HIV; parameters: method as in PMID 24401082; conditions: cited from earlier work
[2] = Pharmacokinetics of IM in NSG mice (single i.p. injection, plasma by HPLC); assay type: in vivo; conditions: for Conc (plasma IM), individual mice: 40 mg/kg
Description: Fasting, female NSG mice (n = 16) were injected with 40 mg/kg IM via i.p. Blood samples were obtained pre-dose (30 minutes before compound injection) and at 5, 15, 30, 60, 120, 180, 240 and 300 minutes after injection using a sparse sampling design (n = 2 samples per mouse, n = 4 samples per time point). Separated plasma was further extracted and processed for analysis, and IM concentrations determined using HPLC analysis. In brief, sample processing involved extraction of plasma (30 μL) with 400 μL acetonitrile and 2 μg/mL internal standard ([…]). The sample was briefly vortexed and centrifuged (12 minutes, 6°C), with transfer of 400 μL of supernatant to a clean test tube. The sample was evaporated to dryness under nitrogen, reconstituted in 50 μL of methanol:water (75:25), and 20 μL was injected onto the column. The concentration of primary analyte (IM) and internal standard (IS) d4-estrone were determined using a Shimadzu Nexera X2 liquid chromatography system coupled with a SPD-M30A UV-VIS diode array detector. The liquid chromatography separation was performed on a Prodigy ODS-3V C18 column, 250 × 4.6 mm, 5 μm. The mobile phase consisted of 35% water and 65% Methanol (Optima LC-MS grade) delivered at a flow rate of 0.85 mL/min. Retention times for IM and IS were 13 and 15 minutes, respectively, with detection at 280 nm. The IM peak identity was confirmed using the complete 240–600 nm absorbance spectra. The standard concentration curve was linear over the range of 0.025 μg/mL– 4.0 μg/mL using regression plots of IM to internal standard peak area ratios versus drug concentrations derived with 1/x2 weighting. […] Non-compartmental pharmacokinetic parameters were determined from pooled average data at each time point using Phoenix WinNonlin v6.4 (Certara, St. Louis, MO).
We evaluated the pharmacokinetics of IM in NSG mice following a single i.p. injection of 40 mg/kg, a dose that inhibited plasma HIV RNA levels by 2 log 10 units in our previous study. Data (S1 Table) were plotted on concentration-time curves and pharmacokinetic parameter values determined (Fig 1). […] Thus, IM concentrations above HIV EC50 values are rapidly achieved and maintained for > 3 h following i.p. injection of 40 mg/kg IM.
Fig 1 Pharmacokinetics of IM in mice. NSG mice (n = 16) were i.p. injected with 40 mg/kg IM. Blood samples were obtained pre-dose and at 5, 15, 30, 60, 120, 180, 240 and 300 minutes after injection using a sparse sampling design (n = 2 samples per mouse, n = 4 samples per time point). Separated plasma was further extracted and processed for analysis, and IM concentrations were determined using HPLC analysis.

HIV [3] = system: HIV; parameters: method as in PMID 16284457; conditions: lymphocytes; read-out: EC50 for inhibition of HIV in vitro; cited from earlier work
macrophages = conditions: cited from earlier work
primary lymphocytes = conditions: cited from earlier work
HIV-1 NL4-3 = experiment: Drug susceptibility assay in PHA-activated PBMCs (HIV p24 ELISA day 7); assay type: cell-based; conditions: PBMCs, NL4-3, day 7
Description: The ARTs tenofovir, raltegravir and indinavir were obtained from the NIH AIDS Research and Reference Reagent Program (Gaithersburg, MD). Drug susceptibility assays were performed in PBMCs as previously. Briefly, donor PBMCs were activated by culture with phytohemagglutinin (PHA) for 3 days. Activated PBMCs were infected with HIV (M.O.I of 0.001) for 2 hours in the absence of IM or ARTs, washed to remove non-adsorbed virus, and plated in culture medium containing IL-2 and various dilutions of IM and ARTs alone and in combination. On day 3, fresh medium with fresh drug was added to the cultures. On day 7, cultures were evaluated for HIV production by measuring HIV p24 levels in the culture supernatants by ELISA (PerkinElmer Life Sciences, Inc., Boston, Massachusetts). Data were normalized to p24 levels in drug untreated controls (100%) and EC50 values determined by fitting the data to sigmoidal dose-response (variable slope) curves using GraphPad Prism 5.0 software.
A potential use of CDK9 inhibitor for the treatment of HIV will probably be in combination with ARTs from other classes. We thus evaluated the antiviral interaction between IM and ARTs from the NRTI, integrase and protease inhibitor classes in PBMCs infectivity assays in vitro. We used the virus strain HIV-1 NL4-3 to ensure a robust viral replication in the assays. Although HIV-1 NL4-3 differs from HIV-1 BaL in usage of coreceptor for cell entry, it is expected to have similar sensitivity to the tested ARTs. […] These enhancements of ART potencies by IM are consistent with targeting of different steps of the HIV cycle by IM and the tested ARTs.

[4] = in vivo; cited from earlier work
CDK9 = system: CDK9; parameters: method as in PMID 16284457; conditions: cited from earlier work
HIV [5] = system: HIV; parameters: method as in PMID 16284457; conditions: macrophages; read-out: EC50 for inhibition of HIV in vitro; cited from earlier work

## O=C1Nc2ccccc2/C1=C1/Nc2ccccc2/C1=N\O [IM, Indirubin 3’-monoxime]
HIV [1]; 40 mg/kg, previous study
  inhibition of plasma HIV RNA levels: 2 log 10 units
HIV [1]; NSG mice, daily doses between 2.5 and 40 mg/kg
  general toxicity: absence of general toxicity
[2]; 5 min after i.p. 40 mg/kg
  Conc (plasma IM), individual mice: 1056 ng/mL and 1492 ng/mL and 1336 ng/mL and 54 ng/mL
[2]; 15 min after i.p. 40 mg/kg
  Conc (plasma IM), individual mice: 3005 ng/mL and 2975 ng/mL and 3996 ng/mL and 2773 ng/mL
[2]; 30 min after i.p. 40 mg/kg
  Conc (plasma IM), individual mice: 4918 ng/mL and 2550 ng/mL and 29 ng/mL and 3217 ng/mL
[2]; 60 min after i.p. 40 mg/kg
  Conc (plasma IM), individual mice: 2983 ng/mL and 2619 ng/mL and 2828 ng/mL and 2005 ng/mL
[2]; 120 min after i.p. 40 mg/kg
  Conc (plasma IM), individual mice: 4276 ng/mL and 1171 ng/mL and 1632 ng/mL and 14 ng/mL
[2]; 180 min after i.p. 40 mg/kg
  Conc (plasma IM), individual mice: 380 ng/mL and 1062 ng/mL and 56 ng/mL and 217 ng/mL
[2]; 240 min after i.p. 40 mg/kg
  Conc (plasma IM), individual mice: 285 ng/mL and 58 ng/mL and 14 ng/mL and 376 ng/mL
[2]; 300 min after i.p. 40 mg/kg
  Conc (plasma IM), individual mice: 44 ng/mL and 79 ng/mL and 83 ng/mL and 35 ng/mL
[2]; single i.p. 40 mg/kg, plasma
  AUC: 370 ± 64 µg·min/mL
  elimination t1/2: 42.4 min
  maximum concentration of IM in plasma (Cmax): 3190 ± 270 ng/mL
[2]; single i.p. 40 mg/kg, plasma, converted from μg/mL
  Cmax: 11.5 ± 0.97 µM
HIV [3]
  EC50: 1000 nM
macrophages
  cytotoxicity: not cytotoxic
Primary lymphocytes
  cytotoxicity: not cytotoxic
HIV-1 NL4-3; IM alone (IND 0 nM), IND experiment, untreated control 55.00
  P24: 4.00 ng/mL
HIV-1 NL4-3; IM alone (RAL 0 nM), RAL experiment, untreated control 24.0
  P24: 8.00 ng/mL
HIV-1 NL4-3; IM alone (TDF 0 µM), TDF experiment, untreated control 50.0
  P24: 10.0 ng/mL
[4]
  penetration in brain: favorable penetration in brain
CDK9
  inhibition of CDK9 relative to other CDKs: inhibits CDK9 more potently than other CDKs
HIV [5]
  EC50: 500 nM
